Values of other authors as cited in patent US20220362213A1, “METHODS FOR TREATING POST ENDOSCOPIC RETROGRADE CHOLANGIOPANCREATOGRAPHY PANCREATITIS” (priority 2021, published 2022).

Tests used:
post-ERCP pancreatitis [1] = conditions: single-dose rectal; meta-analysis of preliminary studies
post-ERCP pancreatitis [2] = conditions: for preventing post-ERCP pancreatitis: two large controlled trials, pharmacologic prevention in high-risk patients

Compound	protective effects in post-ERCP pancreatitis (post-ERCP pancreatitis [1])	preventing post-ERCP pancreatitis (post-ERCP pancreatitis [2])	other results
O=C(O)Cc1ccccc1Nc1c(Cl)cccc1Cl [diclofenac]	benefit		
CCOC(=O)c1ccc(OC(=O)CCCCCNC(=N)N)cc1 [gabexate]		ineffective	reducing the frequency of post-ERCP pancreatitis (post-ERCP pancreatitis [2]; prophylaxis, meta-analysis of 28 clinical trials): effective
COc1ccc2c(c1)c(CC(=O)O)c(C)n2C(=O)c1ccc(Cl)cc1 [indomethacin]	benefit		
C[C@@H](O)[C@@H]1NC(=O)[C@H](CCCCN)NC(=O)[C@@H](Cc2c[nH]c3ccccc23)NC(=O)[C@H](Cc2ccccc2)NC(=O)[C@@H](NC(=O)[C@H](N)Cc2ccccc2)CSSC[C@@H](C(=O)N[C@H](CO)[C@@H](C)O)NC1=O [octreotide]		ineffective	hyperamylasemia (post-ERCP pancreatitis [2]; after ERCP): reduces hyperamylasemia; clinical course of post-ERCP pancreatitis (post-ERCP pancreatitis [2]; human, in vivo): has not been shown to alter the clinical course
secretin			incidence of post-ERCP pancreatitis (post-ERCP pancreatitis [2]; retrospective review of 4833 ERCP procedures, patients without pancreas divisum): might decrease the incidence
